From patent US20220117958A1, “COMPOSITIONS AND METHODS FOR INHIBITING ACSS2” (THE TRUSTEES OF THE UNIVERSITY OF PENNSYLVANIA, priority 2018, published 2022)

Key:
Male Sprague-Dawley rat = test: Fear conditioning in rats (cued memory test); format: in vivo; settings: IP, dosed 5 min before and 30 min after acquisition, versus vehicle
Method: A. Fear Conditioning in Rats
Species: Rat; Strain: Male Sprague-Dawley (CD-SD strain 001; Charles River Labs); Age or weight: 7 to 9 weeks, approximately 250 grams
Formulation(s): 5% DMSO in 0.5% methylcellulose
Dose Levels: 4 mg/kg total; distributed into 2 injections of 2 mg/kg
Dose Frequency: Twice; once prior to shock cycle and once right after last shock • 1st Injection—5 minutes before being placed into fear conditioning chamber • 2nd Injection—30 minutes after coming out of fear conditioning chamber (alternatively 30 min after last shock) • Study duration: 3 days
Rats are handled for 3 consecutive days for ˜2 minutes each day prior to the experiment. […]
Day 1—Conditioning (Acquisition)—animals are placed in the chambers and presented a training session (Context A). […] Freezing behavior (immobility) is recorded in 10-second intervals during the session. Percent baseline freezing behavior is determined in the 3-minute habituation period. […]
The rats were provided 3 minutes habituation. […] Data is recorded in 10 see epochs. […]
Animals are placed in the chambers with a different (lemon) scent and black Plexiglas floor over the grid floor (Context B). Freezing behavior in response to an altered context is recorded for 2 minutes in 10-second intervals. Then the 80 dB tone is presented for 8 minutes and immobility is recorded in 10-second intervals to measure freezing response to the tone cue.

mice = test: Fear reconsolidation behavioral study; format: in vivo; settings: 2 mg/kg immediately before and 30 min after each of 4 dosed cue-recall sessions, versus DMSO
Method: 3 CS-US pairings were performed: tone is 30 seconds long co-terminating with 2 second, 1 mA shock. No drug or vehicle was administered.
Subsequent to the acquisition, and following the schedule provided, above, recall and reconsolidation sessions ensued. The cage was altered in context (floor board, walls, vanilla scent). The same paradigm as acquisition was used for reconsolidation and recall exposures but no shock was delivered. The following procedure was followed: (1) 2 min habituation to box; (2) 30 sec tones; (3) 1 min it is.
Injections of ADG-205c or DMSO at dosage of 2 mg/kg are administered at the following time points: Immediately before reconsolidation/recall; and then 30 minutes following reconsolidation/recall.

COCCNC(=O)Nc1ccc2nc(-c3cccs3)c(-c3cccs3)nc2c1 [ADG-205c, 1-(2,3-di(thiophen-2-yl)quinoxalin-6-yl)-3-(2-methoxyethyl)urea]
Freezing during cue presentation (cued memory test) (Male Sprague-Dawley rat; listed as EPV018): significant reduced freezing | Freezing during cue presentation (cued memory test) (Male Sprague-Dawley rat; listed as EPV-018): statistically significant reduction | Fear response (freezing) after reconsolidation sessions (mice): observable reduced fear response
